Usually EC50 stands for the midpoint of the concentration-response curve. As a reminder, the bioavailability is the share of a dose that reaches the circulation, judged against a reference dose that is usually intravenous.

Each structure is given as a SMILES string. Calls of active or inactive are those of the source. The calls are words filed in the database; no cut-off is given here.

This is an account of results in ChEMBL document CHEMBL1165956, “Design, synthesis, and pharmacological evaluation of N-(4-mono and 4,5-disubstituted thiazol-2-yl)-2-aryl-3-(tetrahydro-2H-pyran-4-yl)propanamides as glucokinase activators” (Bioorg Med Chem, 2010).

Data set [1] concerns the target T1, Hexokinase-4 (Homo sapiens, UniProt P35557).
T1 sequence (P35557 whole entry): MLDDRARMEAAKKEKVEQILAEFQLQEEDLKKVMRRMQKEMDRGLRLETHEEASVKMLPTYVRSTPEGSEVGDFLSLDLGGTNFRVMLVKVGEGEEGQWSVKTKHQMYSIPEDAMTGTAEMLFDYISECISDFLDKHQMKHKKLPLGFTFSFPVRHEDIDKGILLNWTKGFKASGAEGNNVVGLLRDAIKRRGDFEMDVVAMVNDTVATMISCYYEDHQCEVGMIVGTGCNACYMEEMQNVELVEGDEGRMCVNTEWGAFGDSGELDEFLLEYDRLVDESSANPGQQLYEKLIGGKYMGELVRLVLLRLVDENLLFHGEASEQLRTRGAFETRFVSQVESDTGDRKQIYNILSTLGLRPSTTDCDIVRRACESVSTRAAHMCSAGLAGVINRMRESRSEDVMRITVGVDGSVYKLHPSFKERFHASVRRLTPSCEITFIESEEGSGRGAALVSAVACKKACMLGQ
The experiment in a line: Activation of human glucokinase expressed in Escherichia coli BL21(DE3) coexpressing G6PDH by spectrometry.

Data set [2] has as its system Mus musculus. The experiment in a line: Antihyperglycemic activity in diabetic C57BL/6J ob/ob mouse assessed as decrease in blood glucose at 50 mg/kg, po administered as single dose measured after 180 mins relative to control. The format is functional, organism-based. Further details: dose 50 mg/kg.
Data set [3] relates to Hepatocyte. The experiment in a line: Induction of glycogen synthesis in Sprague-Dawley rat hepatocytes at 20 uM after 4 hrs relative to control. The format is functional.
Data set [4] relates to Mus musculus. The experiment in a line: Hypoglycemic activity in non-diabetic ICR mouse assessed as decrease in blood glucose at 3 mg/kg, po administered as single dose measured after 30 mins relative to control. It counts as functional. Further details: scale not given: the % may be the effect or the level left.
The test system of data set [5] is Mus musculus. The experiment in a line: Hypoglycemic activity in non-diabetic ICR mouse assessed as decrease in blood glucose at 10 mg/kg, po administered as single dose measured after 30 mins relative to control. It counts as functional. Further details: scale not given: the % may be the effect or the level left.
Data set [6] relates to Mus musculus. The experiment in a line: Hypoglycemic activity in non-diabetic ICR mouse assessed as decrease in blood glucose at 50 mg/kg, po administered as single dose measured after 30 mins relative to control. The format is functional. Further details: scale not given: the % may be the effect or the level left.
In data set [7] the test system is Mus musculus. The experiment in a line: Hypoglycemic activity in non-diabetic ICR mouse assessed as decrease in blood glucose at 3 mg/kg, po administered as single dose measured after 120 mins relative to control. It counts as functional, organism-based. Further details: dose 3 mg/kg.
Data set [8] has as its system Mus musculus. The experiment in a line: Hypoglycemic activity in non-diabetic ICR mouse assessed as decrease in blood glucose at 10 mg/kg, po administered as single dose measured after 240 mins relative to control. Further details: dose 10 mg/kg. The format is functional, organism-based.
For data set [9], the system named is Mus musculus. The experiment in a line: Hypoglycemic activity in non-diabetic ICR mouse assessed as decrease in blood glucose at 50 mg/kg, po administered as single dose measured after 240 mins relative to control. It counts as functional, organism-based. Further details: dose 50 mg/kg.
Data set [10] has as its system Mus musculus. The experiment in a line: Antihyperglycemic activity in diabetic C57BL/6J ob/ob mouse assessed as decrease in blood glucose at 20 mg/kg, po administered as single dose measured after 120 mins relative to control. It counts as functional, organism-based. Further details: dose 20 mg/kg.
For data set [11], the system named is Mus musculus. The experiment in a line: Antihyperglycemic activity in diabetic C57BL/6J ob/ob mouse assessed as decrease in blood glucose at 20 mg/kg, po administered as single dose measured after 180 mins relative to control. The format is functional, organism-based. Further details: dose 20 mg/kg.
The test system of data set [12] is Mus musculus. The experiment in a line: Antihyperglycemic activity in diabetic C57BL/6J ob/ob mouse assessed as decrease in blood glucose at 50 mg/kg, po administered as single dose measured after 60 mins relative to control. The format is functional, organism-based. Further details: dose 50 mg/kg.
Data set [13] relates to Mus musculus. The experiment in a line: Antihyperglycemic activity in diabetic C57BL/6J ob/ob mouse assessed as decrease in blood glucose at 50 mg/kg, po administered as single dose measured after 120 mins relative to control. It counts as functional, organism-based. Further details: dose 50 mg/kg.
Data set [14] concerns the target T2, Hexokinase-4 (Rattus norvegicus, UniProt P17712).
T2 sequence (P17712 whole entry): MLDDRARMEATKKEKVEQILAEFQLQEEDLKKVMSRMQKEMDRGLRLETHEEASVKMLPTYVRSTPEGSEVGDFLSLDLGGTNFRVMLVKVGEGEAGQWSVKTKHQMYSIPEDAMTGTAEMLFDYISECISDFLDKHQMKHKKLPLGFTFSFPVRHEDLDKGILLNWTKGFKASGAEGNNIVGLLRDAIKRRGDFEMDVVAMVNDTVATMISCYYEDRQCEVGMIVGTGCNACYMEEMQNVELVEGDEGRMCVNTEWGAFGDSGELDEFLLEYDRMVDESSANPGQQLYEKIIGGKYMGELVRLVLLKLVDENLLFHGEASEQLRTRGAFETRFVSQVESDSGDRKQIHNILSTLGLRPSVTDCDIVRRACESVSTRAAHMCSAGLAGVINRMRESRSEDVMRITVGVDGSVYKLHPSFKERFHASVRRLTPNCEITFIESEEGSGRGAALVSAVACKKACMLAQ
Description: Induction of glucokinase-mediated 2-deoxy-D-[3H]glucose uptake in Sprague-Dawley rat hepatocytes after 4 hrs by liquid scintillation countingl

A short description of data set [15]: Oral bioavailability in rat. It counts as ADME, organism-based. As to conditions: in vivo.
The nature of data set [16]: Oral bioavailability in dog. It counts as ADME, organism-based, Canis lupus familiaris. The settings on record: in vivo.

On to `CN1CCc2nc(NC(=O)C(CC3CCOCC3)c3ccc(S(=O)(=O)C4CC4)cc3)sc2C1` (stereo unspecified), for which the EC50 in data set [1] (read-out: EC50) was determined as 2860 nM.

Regarding `CC(C)/C=C1\SC(NC(=O)C(CC2CCOCC2)c2ccc(S(=O)(=O)C3CC3)cc2)=NC1=O` (stereo unspecified), the EC50 entry in data set [1] is listed as “Not Active”. For `O=C1CSC(NC(=O)C(CC2CCOCC2)c2ccc(S(=O)(=O)C3CC3)cc2)=N1` (stereo unspecified), in data set [1] (read-out: EC50), the concentration giving a half-maximal response (EC50) was determined as 4680 nM. As for `COc1ccc(-c2csc(NC(=O)C(CC3CCOCC3)c3ccc(S(C)(=O)=O)cc3)n2)cc1` (stereo unspecified), in data set [1] (read-out: EC50), the concentration giving a half-maximal response (EC50) was found to be 1040 nM. Regarding `O=C(Nc1nc2c(s1)CCC2)C(CC1CCOCC1)c1ccc(S(=O)(=O)C2CC2)cc1` (stereo unspecified), in data set [1] (read-out: EC50), the concentration giving a half-maximal response (EC50) turned out to be 79 nM. Take `Cc1nc(NC(=O)C(CC2CCOCC2)c2ccc(S(C)(=O)=O)cc2)sc1C(C)C` (stereo unspecified): the EC50 result in data set [1] was “Not Active”. Turning to `Cc1nc(NC(=O)C(CC2CCOCC2)c2ccc(S(C)(=O)=O)cc2)sc1C` (stereo unspecified), in [1] (read-out: EC50), the concentration for a half-maximal effect (EC50) was found to be 2860 nM. Turning to `CC(C)c1csc(NC(=O)[C@H](CC2CCOCC2)c2ccc(S(C)(=O)=O)cc2)n1`, in data set [1] (read-out: EC50), the EC50 amounted to 330 nM. Regarding `CC(C)c1nc(NC(=O)C(CC2CCOCC2)c2ccc(S(=O)(=O)C3CC3)cc2)sc1Br` (stereo unspecified), the EC50 in [1] (read-out: EC50) stood at 320 nM.

`C=C(C)c1csc(NC(=O)C(CC2CCOCC2)c2ccc(S(=O)(=O)C3CC3)cc2)n1` (stereo unspecified): the EC50 in data set [1] (read-out: EC50) was 158 nM. On to `CC(C)c1csc(NC(=O)C(CC2CCOCC2)c2ccc(S(C)(=O)=O)cc2)n1` (stereo unspecified), for which, in [1] (read-out: EC50), the EC50 came out at 310 nM.

Consider `CS(=O)(=O)c1ccc(C(CC2CCOCC2)C(=O)Nc2nccs2)cc1` (stereo unspecified), for which, in data set [1] (read-out: EC50), the EC50 turned out to be 1690 nM.

As for `CC(C)Cc1csc(NC(=O)C(CC2CCOCC2)c2ccc(S(C)(=O)=O)cc2)n1` (stereo unspecified), in data set [1] (read-out: EC50), the EC50 turned out to be 355 nM. As to `CS(=O)(=O)c1ccc(C(CC2CCOCC2)C(=O)Nc2nc(-c3ccccc3)cs2)cc1` (stereo unspecified), the EC50 in data set [1] (read-out: EC50) was 724 nM.

For `O=C1N=C(NC(=O)C(CC2CCOCC2)c2ccc(S(=O)(=O)C3CC3)cc2)S/C1=C\c1ccccc1` (stereo unspecified), the EC50 entry in data set [1] is “Not Active”. Turning to `CC(C)(C)c1csc(NC(=O)C(CC2CCOCC2)c2ccc(S(C)(=O)=O)cc2)n1` (stereo unspecified), the EC50 in data set [1] (read-out: EC50) was 2930 nM. For `CC(C)c1csc(NC(=O)[C@H](CC2CCOCC2)c2ccc(S(=O)(=O)C3CC3)cc2)n1`, the outcome in data set [2], in [7], in [8], in [9], in data set [10] and in [11] was Active. In addition, the outcome in data set [12] and in data set [13] was Active. In addition, the Activity in data set [3] came out at 83.7%; in data set [4], 12.7%; in data set [5], 33.9%; in data set [6], 40.7%. For the same compound, the response in data set [14] was half-maximal at 26 nM (EC50).

With `CS(=O)(=O)c1ccc(C(CC2CCOCC2)C(=O)Nc2nc(C3CC3)cs2)cc1` (stereo unspecified), the EC50 in data set [1] (read-out: EC50) is 1350 nM. Consider `CS(=O)(=O)c1ccc(C(CC2CCOCC2)C(=O)Nc2nc3cc(F)ccc3s2)cc1` (stereo unspecified), for which the EC50 entry in [1] was “Not Active”.

On to `CS(=O)(=O)c1ccc(C(CC2CCOCC2)C(=O)Nc2nc(-c3ccc(F)cc3)cs2)cc1` (stereo unspecified), for which, in data set [1] (read-out: EC50), the EC50 was determined as 1180 nM. Regarding `CC(C)c1nc(NC(=O)C(CC2CCOCC2)c2ccc(S(=O)(=O)C3CC3)cc2)sc1I` (stereo unspecified), in data set [1], the EC50 result is “Not Active”. In the case of `CCc1csc(NC(=O)C(CC2CCOCC2)c2ccc(S(C)(=O)=O)cc2)n1` (stereo unspecified), the EC50 in data set [1] (read-out: EC50) turned out to be 1000 nM. Turning to `COC[C@H](C)Oc1cc(O[C@@H](C)Cc2ccccc2)cc(C(=O)Nc2ccc(C(=O)O)cn2)c1`, the results for the bioavailability in [15] and in data set [16] were 90% and 100%, respectively.
